From patent US9133179B2, “2-methoxy-pyridin-4-yl-derivatives” (Actelion Pharmaceuticals Ltd., priority 2011, dated 2015) come the findings set out here.

Series [1] has as its target T1, human S1P1 (EDG1) receptor (Homo sapiens, UniProt P21453).
T1 construct: host or cells: U2OS (Tango EDG1-bla U2OS)
Nature of the series: S1P1 β-arrestin recruitment (Tango) assay to determine EC50 values. Conditions: Tango-EDG1 bla U2OS cells, 16 h incubation. Format: cell-based. (Recruitment of arrestin is a read-out of receptor activation apart from second messengers.)

The subject of series [2] is rat trachea rings. Nature of the series: Measurement of isometric force development: constriction of rat trachea rings. Conditions: for activation at 0.1 µM / activation at 1 µM: Rattus norvegicus; for activation at 0.1 µM: read-out: % trachea constriction at 0.1 μM; for activation at 1 µM: read-out: % trachea constriction at 1 μM.
Description: (§1) Measurement of Isometric Force Development
(§2) Female Wistar rats are euthanized by exposure to CO2. The tracheae are excised and rings from the lower segments are prepared. […] A resting force of 2 g (20 mN) is applied to the ring preparation, and changes in force generation are measured using an isometric force recorder (EMKA Technologies Inc., Paris, France). Viability of rings is assessed by exposure to a depolarizing concentration of KCl (50 mM). Contraction of trachea is expressed as a percentage of the response to KCl.
(§3) The compounds are prepared as stock solutions of 0.3 mM in pure DMSO.
For series [3], the system named is circulating lymphocytes. Nature of the series: Assessment of in vivo efficacy: circulating lymphocytes after oral administration to Wistar rats. Set-up: species or system rat. Conditions: 6 h after oral administration of 10 mg/kg, normotensive male Wistar rats, compared to vehicle group; for change in vivo at 10 mg/kg: Rattus norvegicus, Lymphocyte, read-out: Lymphocyte counts.

Series [4] has as its system rat trachea rings.
Description: as §1, §2, §3
[5] abbreviates: in % of the constriction induced by 50 mM KCl.

T1 sequence (P21453 whole entry): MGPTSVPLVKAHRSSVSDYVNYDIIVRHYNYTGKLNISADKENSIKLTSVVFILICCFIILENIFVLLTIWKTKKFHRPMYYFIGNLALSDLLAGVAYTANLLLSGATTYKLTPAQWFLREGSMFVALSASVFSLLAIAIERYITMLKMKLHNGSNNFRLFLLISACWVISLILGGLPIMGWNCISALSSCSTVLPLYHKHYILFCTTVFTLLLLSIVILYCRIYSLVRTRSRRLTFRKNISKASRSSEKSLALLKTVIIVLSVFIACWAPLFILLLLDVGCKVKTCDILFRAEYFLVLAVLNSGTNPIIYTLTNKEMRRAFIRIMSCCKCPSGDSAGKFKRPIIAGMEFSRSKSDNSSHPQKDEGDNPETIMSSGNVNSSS

“4-((2-(4-(5-(2-Cyclopentyl-6-methoxypyridin-4-yl)-1,2,4-oxadiazol-3-yl)-2-ethyl-6-methylphenoxy)ethyl)amino)-4-oxobutanoic acid [Example 50]” registered a half-maximal effective concentration (EC50) in series [1] of 0.1 nM. For the same compound, in series [2] (setting [5]), the “% trachea constriction at 10 nM” value was <5% and the “% trachea constriction at 30 nM” value is recorded as 55%. The “% trachea constriction at 0.1 μM” value in series [2] (0.1 μM, in % of the constriction induced by 50 mM KCl) came to 103%. The Lymphocyte counts in series [3] is −57%. Moreover, the “concentration at which significant (or KCl-comparable) rat trachea constriction is shown” value in series [4] amounted to 0.1 µM.

`COc1cc(-c2nc(-c3cc(Cl)c(OCCCC(=O)O)c(OC)c3)no2)cc(C2CCCC2)n1` [Example 35, 4-(2-Chloro-4-(5-(2-cyclopentyl-6-methoxypyridin-4-yl)-1,2,4-oxadiazol-3-yl)-6-methoxyphenoxy)butanoic acid] displayed a 50% effective concentration (EC50) in series [1] of 0.627 nM. Further, in series [2] (setting [5]), the “% trachea constriction at 10 nM” value is given as <5% and the “% trachea constriction at 30 nM” value was <5%. In series [2], the activation at 0.1 µM was found to be 86% and the activation at 1 µM came to 108%. Also, the change in vivo at 10 mg/kg in series [3] is -71%.

As to `COc1cc(-c2nc(-c3cc(C)c(OCC(=O)O)c(Cl)c3)no2)cc(C2CCCC2)n1` [Example 41, 2-(2-Chloro-4-(5-(2-cyclopentyl-6-methoxypyridin-4-yl)-1,2,4-oxadiazol-3-yl)-6-methylphenoxy)acetic acid], the EC50 in series [1] was determined as 1.1 nM. Moreover, in series [2] (setting [5]), the “% trachea constriction at 10 nM” value was <5% and the “% trachea constriction at 30 nM” value worked out at 10%. In series [2], the activation at 0.1 µM amounted to 56% and the activation at 1 µM turned out to be 120%. The change in vivo at 10 mg/kg in series [3] is -49%.

Consider `COc1cc(-c2nc(-c3cc(C)c(OCCNCCO)c(Cl)c3)no2)cc(C2CCCC2)n1` [Example 45, 2-((2-(2-Chloro-4-(5-(2-cyclopentyl-6-methoxypyridin-4-yl)-1,2,4-oxadiazol-3-yl)-6-methylphenoxy)ethyl)amino)ethanol], for which, in series [1], the EC50 was 1.7 nM. The “% trachea constriction at 3 μM” value in series [2] (3 μM, in % of the constriction induced by 50 mM KCl) is recorded as <5%. For the same compound, in series [2] (10 μM, in % of the constriction induced by 50 mM KCl), the “% trachea constriction at 10 μM” value is recorded as 52%. Moreover, the activation at 1 µM in series [2] is < 5%. Moreover, the “concentration at which significant (or full) rat trachea constriction is shown” value in series [2] (rat trachea rings) was 10 µM. The change in vivo at 10 mg/kg in series [3] is -72%.

Regarding `CCc1cc(-c2nc(-c3cc(OC)nc(C4CCCC4)c3)no2)cc(C)c1OCCCC(=O)O` [Example 54, 4-(4-(3-(2-Cyclopentyl-6-methoxypyridin-4-yl)-1,2,4-oxadiazol-5-yl)-2-ethyl-6-methylphenoxy)butanoic acid], the EC50 in series [1] was 0.1 nM. Also, the “% trachea constriction at 30 nM” value in series [2] (setting [5]) is <5%. Moreover, in series [2] (0.3 μM, in % of the constriction induced by 50 mM KCl), the “% trachea constriction at 0.3 μM” value was determined as 55%. Moreover, in series [2], the activation at 0.1 µM amounted to 5.6% and the activation at 1 µM was 76%. For the same compound, the change in vivo at 10 mg/kg in series [3] was -72%.

The EC50 is the concentration needed to bring the measured effect to its halfway point. A higher EC50 goes with weaker potency.
